This is an account of results in patent US20230167058A1, “GPX4 COMPOUNDS AND COMPOSITIONS AND METHODS OF TREATMENT USING SAME” (THE TRUSTEES OF COLUMBIA UNIVERSITY IN THE CITY OF NEW YORK, priority 2020, published 2023).

Data set [1] concerns the target T1, GPX4^U46C (Homo sapiens, UniProt P36969, U73C).
T1 construct: His6 (N, cleaved yes); made in house; host or cells: E. coli BL21-Gold (DE3), M9 minimal medium with 15NH4Cl
T1 sequence (P36969 33-197 U73C): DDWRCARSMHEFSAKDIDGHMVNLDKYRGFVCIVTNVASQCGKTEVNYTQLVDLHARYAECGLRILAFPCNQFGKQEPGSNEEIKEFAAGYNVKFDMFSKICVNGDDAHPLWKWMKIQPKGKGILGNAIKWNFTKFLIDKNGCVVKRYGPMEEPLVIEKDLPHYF
Briefly: Thermal shift assay (screen of LOC library). The data set is classed as binding. As for the experimental part: To fully utilize the versatility shown by the […] site to accommodate structurally diverse compounds, we applied thermal shift assay to screen 9,719 compounds in the Lead-Optimized-Compound (LOC) library for in vitro binders of GPX4^U46C, which would shift the melting temperature of GPX4^U46C (|ΔTm|>2° C., FIG. 12D) (Kaplan et al. 2015).
Since the binding of small molecules may alter the thermostability of protein, we applied thermal shift assay to screen the LOC library, which determined binding of ligand from the change of the unfolding transition temperature (ΔTm) obtained in the presence of ligands relative to that obtained in the absence of ligands (Kaplan et al. 2015; Lo et al. 2004). For higher throughput purpose, we adapted the assay on 384-well PCR plate. With the assistance of Biomek Automated Liquid Handler (Beckman), 2 μl 10 mM stock solution (in 100% DMSO) of the each compound was transferred from 384-well library plates to 38 μl FPLC buffer (100 mM Tris pH 8.0, 300 mM NaCl, 3 mM TCEP) and mixed in each well of a 384-well mother plate. The compound solution was then dispensed, 12 μl per well, into three 384-well PCR plates. GPX4^U46C protein and Sypro orange were manually added to the plate, with the final concentrations of 5 μM and 5×, respectively, to make a volume of 20 μl per well right before thermal shift analysis of the specific plate. The thermal shift assay was performed on the ViiA 7 Real-Time PCR system (Thermo Fisher) with the thermal protocol: 25° for 15 s, Increase temp to 99° at a rate of 0.05°/sec, 99° for 15 sec. The fluorescence was recorded and analyzed by Protein Thermal Shift™ software. The mean |ΔTm| value for the biological triplicates were calculated and used for hit identification.

Data set [2] addresses T1, GPX4^U46C. Briefly: Intact protein MALDI MS analysis, GPX4^U46C. The data set is classed as binding. Particulars: protein preincubated with excess inhibitor. The method, then: GPX4^U46C or GPX4^AllCys(−)-A46C protein was pre-incubated with DMSO control or the inhibitor to be tested prior to MALDI MS analysis: 50 μM GPX4 protein was incubated with 500 μM inhibitors in FPLC buffer (100 mM Tris pH 8.0, 300 mM NaCl, and 3 mM TCEP) with 5% DMSO at RT for 1 hour before transferring to 4° C. overnight.
1 μl of the ligand-free protein (pre-incubated with DMSO) or protein-inhibitor complex (pre-incubated with the inhibitor to be tested) was mixed with 9 μl of 10 mg/ml sinapinic acid in the matrix solution (70:30 water/acetonitrile, with 0.1% TFA). 1.0 μl of the final mix was deposited onto the target carrier and allowed to air dry. MALDI spectrum was recorded using Bruker ultrafleXtreme MALDI-TOF instrument. The range of m/z detection and suppression was adjusted to accommodate the molecular weight of target protein. 2000 Hz and 50% intensity was applied for the laser setting. For each sample, five cumulative spectra were collected and the sum was recorded for analysis. All MALDI spectra of protein-inhibitor complex were compared with ligand-free protein to determine the mass shift. Mass shifts were aligned with the mass of potential staying group of each inhibitor to conclude covalent binding.

The target of data set [3] is T1, GPX4^U46C. Briefly: 1H,15N-HSQC-NMR of 15N-labeled GPX4^U46C. The data set is classed as binding. The method, then: Uniformly ^15N-labeled GPX4^U46C protein with N-terminal His6 tag was prepared. The GPX4^U46C construct was expressed in E. coli BL21-Gold (DE3) cells (Stratagene) growing at 37° C. in M9 minimal medium supplemented with […] ampicillin, 2 mM MgSO4, […] CaCl2, 1× trace metals, 1×RPMI 1640 vitamin stock (Sigma-Aldrich, #R7256), […] biotin, […] thiamine hydrochloride, 4 g/L glucose, and 3 g/L ^15NH4Cl as the sole nitrogen source. The following induction, lysis, and protein purification was the same as for the non-isotope-labeled His-tagged GPX4^U46C described above, except the N-terminal His6 tag was removed by adding 5 U/mg thrombin before FPLC purification. The thrombin reaction was after a buffer exchange to remove imidazole, which otherwise would inhibit thrombin, and was allowed to proceed overnight at 4° C.
Then the protein solution was concentrated to 50 μM before testing. For HSQC of GPX4 with other inhibitors, 50 μM ^15N-labeled GPX4 was preincubated with 800 μM inhibitor to be tested for […] at room temperature in buffer (100 mM MES, 5 mM TCEP, pH 6.5). D20 (10%) was then added for the field frequency lock. The ^1H-^15N HSQC spectra were collected on Bruker Avance III 500 Ascend (500 MHz) spectrometers (Columbia University) at 298K. The ^1H carrier frequency was positioned at the water resonance. The ^15N carrier frequency was positioned at 115 ppm. The spectral width in the ^1H dimension was 7,500 Hz and the width in the ^15N dimension was 1,824.6 Hz. Suppression of water signal was accomplished using the WATERGATE sequence. Heteronuclear decoupling was accomplished using GARP decoupling scheme.

A short description of data set [4]: Aqueous solubility. The data set is classed as physicochemical.

“Also recorded” adds a separate entry of the source.

In the case of `COc1cccc2[nH]c(C(=O)n3ccnc3)cc12` [LOC1886], the Thermal shift entry in data set [1] (Table 1) is reported as “positive”. The “|ΔTm|” value in data set [1] (thermal shift screening top hit) is 3 °C. Further, the “covalent binding to GPX4^U46C by intact protein MALDI MS” value in data set [2] is “covalently bound”. The “binding mode by HSQC NMR” value in data set [3] is given as “non-covalently binds to the RSL3-binding site; also recorded: strongly interacted with the cys66 binding site”. Further, in data set [3] (Table 1), the Binding site result is recorded as “Allosteric Site 1” and the HSQC assay entry is “positive”.

`COC(=O)c1ccc([C@@H]2c3[nH]c4ccccc4c3C[C@@H](C(=O)OC)N2C(=O)CCl)cc1` [RSL3, (1S, 3R)-RSL3]: the “solubility in aqueous solution” value in data set [4] is recorded as “low”. For the same compound, in data set [2], the “covalent binding to GPX4^U46C by intact protein MALDI MS” value is listed as 1:1 covalent binding. Besides, the “binding mode by HSQC NMR” value in data set [3] is “global conformational change induced by binding of RSL3 to cys66”.
